In PubChem BioAssay (NCI) one finds GI50 and TGI data, which are given here for 23 compounds.

As a reminder, the GI50 is the concentration that inhibits growth by half. A word on the TGI: it is the concentration at which net growth stops. Read a low TGI as greater sensitivity of the cells.

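The compound was tested at five concentrations on cells cultured in 96-well plates, with a 48-hour exposure period. The concentration for 50% growth inhibition is given as GI50. TGI is the concentration that stops growth completely.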

One test has as its system SK-OV-3 ovarian. As to the kind of experiment: DTP human tumour cell line panel, 48 h.
As to `CO[C@H]1/C=C(/C)CCC[C@H](C)[C@H](O)[C@@H](C)C(=O)C(C)(C)[C@@H](O)CC(=O)O[C@@H]1/C(C)=C/c1csc(C)n1`, the GI50 was 27.2 nM and the TGI was over 77.2 µM.

Compound `CCC1(CC)C(=O)NN(C(=O)c2ccccc2)C1=O` showed a TGI of over 100 µM.

In turn, `CC(=O)Nc1nc(C#N)[nH]c1C#N` showed a TGI of over 100 µM.

The compound `CS(=O)c1ncc2c(n1)-c1ccccc1OC2` (stereo not drawn) yielded a concentration for total growth inhibition (TGI) of over 100 µM.

Take `CN(C)c1ccc(C(=N/N=C2\C(=O)Nc3ccccc32)c2ccc(N(C)C)cc2)cc1`: the TGI amounted to 11.9 µM.

`COc1ccc(-c2nc(SCC(=O)N/N=C/c3ccc(N(C)C)cc3)[nH]c2-c2ccc(OC)cc2)cc1` returned a total growth inhibition concentration (TGI) of over 100 µM.

The compound `CC1=C[C@@H]2Cc3nc4cc(Cl)ccc4c(N)c3[C@H](C1)C2` came in with a total growth inhibition concentration (TGI) of 24.3 µM.

In turn, `c1c[nH]c(-c2ccc(-c3ccc[nH]3)c3nsnc23)c1` yielded a concentration for total growth inhibition (TGI) of over 100 µM.

`N#Cc1c(-c2ccccc2)/c(=C\Nc2ccc(F)cc2)c(=O)n2c1nc1ccccc12` showed a TGI of over 100 µM.

The compound `CCN(CC)CCn1c(=O)c2cccnc2n2c3c(=O)n(C)c(=O)n(C)c3nc12` showed a TGI of over 100 µM.

Take `CCOC(=O)C1=C(C)C2C=C(c3cccs3)CC(c3ccc(Cl)cc3)=C2OC1=O` (stereo not drawn): the TGI was over 100 µM.

`COc1ccc2c(c1)OCC1Cc3ccccc3OC21` (stereo not drawn) returned a TGI of over 100 µM.

As for `Cc1cc2c3c(nc4ccccc42)C(=O)c2ccccc2-c3n1`, the concentration for total growth inhibition (TGI) stood at 84 µM.

`CCOC(=O)c1nc2c(nc1C(=O)OCC)C(=O)c1ccccc1C2=O`: the concentration for total growth inhibition (TGI) was found to be 5.97 µM. This TGI lies about 14-fold lower than the previous one.

Turning to `CCOC(=O)c1c(C)nc2c3ccccc3c(C#N)c(C)n12`, the TGI was found to be 51.3 µM.

Turning to `Cc1ccc(C(=C2Sc3ccccc3S2)C(=C2Sc3ccccc3S2)c2ccc(C)s2)s1`, the TGI is over 100 µM.

`CCCCC(C(=O)NCCNC(=O)CCC(=O)N(C)O)C(=O)NCCNC(=O)CCC(=O)N(C)O` registered a TGI of over 100 µM.

`C=CCSc1nnc2cc(CN3CCCC3)c(-c3ccc(Cl)cc3)nn12` returned a TGI of 55.5 µM.

In turn, `COc1cccc2c1OC1(C=C2)Oc2ccccc2C(=O)N1C` (stereo not drawn) had a TGI of 74.3 µM.

`CCOC(=O)c1cn2c(nc1=O)N[C@H]1CCCC[C@@H]12` showed a TGI of over 100 µM.

As for `COP(=O)(/C=C/c1cc(C(=O)OCc2ccccc2)n(S(=O)(=O)c2ccccc2)c1)OC`, the TGI was over 100 µM.

Compound `COc1ccc(NC(=O)CC(=O)N2N=C(N3c4ccccc4Sc4ccccc43)CC2c2ccccc2)cc1` (stereo not drawn) yielded a TGI of over 100 µM.

On to `O=C(O)c1ccccc1CC1Cc2ccccc2C1=O` (stereo not drawn), for which the TGI is over 100 µM.

The test system of a further test is SNB-75 CNS. As to the kind of experiment: DTP human tumour cell line panel, 48 h.
For `CO[C@H]1/C=C(/C)CCC[C@H](C)[C@H](O)[C@@H](C)C(=O)C(C)(C)[C@@H](O)CC(=O)O[C@@H]1/C(C)=C/c1csc(C)n1`, the GI50 was under 10 nM and the TGI was found to be 0.0319 µM.

The compound `CCC1(CC)C(=O)NN(C(=O)c2ccccc2)C1=O` displayed a TGI of over 100 µM.

`CC(=O)Nc1nc(C#N)[nH]c1C#N` returned a TGI of over 100 µM.

`CS(=O)c1ncc2c(n1)-c1ccccc1OC2` (stereo not drawn) showed a TGI of over 100 µM.

Compound `CN(C)c1ccc(C(=N/N=C2\C(=O)Nc3ccccc32)c2ccc(N(C)C)cc2)cc1` returned a TGI of 1.21 µM.

On to `COc1ccc(-c2nc(SCC(=O)N/N=C/c3ccc(N(C)C)cc3)[nH]c2-c2ccc(OC)cc2)cc1`, for which the total growth inhibition concentration (TGI) was over 100 µM.

Consider `CC1=C[C@@H]2Cc3nc4cc(Cl)ccc4c(N)c3[C@H](C1)C2`, for which the TGI was found to be 17.9 µM. This lies in the double-digit micromolar range.

`c1c[nH]c(-c2ccc(-c3ccc[nH]3)c3nsnc23)c1` gave a TGI of over 85.8 µM.

Consider `N#Cc1c(-c2ccccc2)/c(=C\Nc2ccc(F)cc2)c(=O)n2c1nc1ccccc12`, for which the TGI was over 100 µM.

Regarding `CCN(CC)CCn1c(=O)c2cccnc2n2c3c(=O)n(C)c(=O)n(C)c3nc12`, the TGI was over 100 µM.

`CCOC(=O)C1=C(C)C2C=C(c3cccs3)CC(c3ccc(Cl)cc3)=C2OC1=O` (stereo not drawn) registered a TGI of over 100 µM.

For `COc1ccc2c(c1)OCC1Cc3ccccc3OC21` (stereo not drawn), the TGI is over 100 µM.

In the case of `Cc1cc2c3c(nc4ccccc42)C(=O)c2ccccc2-c3n1`, the TGI turned out to be 29 µM.

Compound `CCOC(=O)c1nc2c(nc1C(=O)OCC)C(=O)c1ccccc1C2=O` returned a TGI of 2.12 µM.

The compound `CCOC(=O)c1c(C)nc2c3ccccc3c(C#N)c(C)n12` had a TGI of 75.8 µM.

In turn, `Cc1ccc(C(=C2Sc3ccccc3S2)C(=C2Sc3ccccc3S2)c2ccc(C)s2)s1` came in with a TGI of over 100 µM.

Compound `CCCCC(C(=O)NCCNC(=O)CCC(=O)N(C)O)C(=O)NCCNC(=O)CCC(=O)N(C)O` came in with a TGI of over 100 µM.

Consider `C=CCSc1nnc2cc(CN3CCCC3)c(-c3ccc(Cl)cc3)nn12`, for which the total growth inhibition concentration (TGI) turned out to be 39.2 µM.

Compound `COc1cccc2c1OC1(C=C2)Oc2ccccc2C(=O)N1C` (stereo not drawn) yielded a TGI of 74.1 µM.

As for `CCOC(=O)c1cn2c(nc1=O)N[C@H]1CCCC[C@@H]12`, the concentration for total growth inhibition (TGI) is over 100 µM.

`COP(=O)(/C=C/c1cc(C(=O)OCc2ccccc2)n(S(=O)(=O)c2ccccc2)c1)OC` showed a total growth inhibition concentration (TGI) of over 100 µM.

Compound `COc1ccc(NC(=O)CC(=O)N2N=C(N3c4ccccc4Sc4ccccc43)CC2c2ccccc2)cc1` (stereo not drawn) gave a TGI of over 100 µM.

`O=C(O)c1ccccc1CC1Cc2ccccc2C1=O` (stereo not drawn) gave a TGI of over 100 µM.
